For one data set, the system named is Influenza virus. Type of data set: cell-based, influenza A virus NL09 strain. The note with it: for first experiment PFU/ml: 0.1% DMSO control 100000; for Antiviral activity against Influenza virus / Flu titer (pfu/ml): A549 cells; for Antiviral activity against Influenza virus: screening at 50 μM, 10 μM (and 1 μM); for IC50: read-out: IC50 against IAV; for Flu titer (pfu/ml): plaque assay.

The next data set relates to SARS-CoV-2. In kind it is cell-based.
The subject of a further data set is IAV RNA. As to the kind of experiment: Multi-segment RT-PCR (M-RTPCR) of all IAV segments. In kind it is cell-based, influenza A virus.
The next data set relates to MERS-CoV. Type of data set: cell-based, MERS-CoV (Jordan strain). The note with it: Huh7 cells, MOI 0.1, 24 h; read-out: IC50 against MERS-CoV.
The next data set deals with IAV NS1. Type of data set: cell-based, influenza A virus.
In the next data set the test system is IAV. As to the kind of experiment: Time of addition assay, IAV in A549 cells, plaque assay. In kind it is cell-based, influenza A virus.
The test system of the next data set is SARS-CoV. In kind it is cell-based. The note with it: 24 h.
Another data set deals with IAV NS1 mRNA. In kind it is cell-based, influenza A virus.
A further data set concerns SARS-CoV-2 mRNA. Type of data set: cell-based. The note with it: two gene targets (N, RdRp).
For data set [1], the system named is Ebola virus Makona strain (EBOV). Type of data set: cell-based. The note with it: Huh7 cells, 48 h; read-out: IC50 against EBOV.
The test system of another data set is A549 cells. The note with it: 24 h, CellTiter-Glo. (In general: In ATP-based viability assays light output follows the ATP content of the culture.)
Data set [2] has as its system Marburg virus Angola strain (MARV). Type of data set: cell-based. The note with it: Huh7 cells, 48 h; read-out: IC50 against MARV.
A further data set deals with Huh7 cells. The note with it: 24 h, CellTiter-Glo.
Where [3] appears, read: 10 μM compound, DMSO (0.1%) control 153000.
[4] abbreviates: 50 μM compound, DMSO (0.5%) control 58700.
Setting [5] is: 1 μm compound, DMSO (0.1%) control 153000.

Entries after “also recorded” stand apart in the source; their conditions may differ. Read-outs that look alike come from different tables or passages of the source.

`COc1ccc(CNC2CCCC2)c(OCC(O)CN2CCN(C)CC2)c1` (centres unmarked) [18-1]: the “first experiment PFU/ml” value in the data set with Influenza virus (10 μM screen) was 60000 PFU/ml.
For the compound `COc1ccc(CNCCc2ccccc2C)c(OCC(O)CN2CCN(C)CC2)c1` (centres unmarked) [18-2], the “first experiment PFU/ml” value in the data set with Influenza virus (10 μM screen) is given as 500 PFU/ml. Also, the “Antiviral activity against Influenza virus” value in the data set with Influenza virus (listed as 27092311) is reported as “increased activity”.
Turning to `COc1ccc(CNC2Cc3ccccc3C2)c(OCC(O)CN2CCN(C)CC2)c1` (centres unmarked) [18-3], in the data set on Influenza virus (10 μM screen), the “first experiment PFU/ml” value was 12000 PFU/ml.
`COc1ccc(CNCCc2ccccc2Cl)c(OCC(O)CN2CCN(C)CC2)c1` (centres unmarked) [18-4]: in the data set with Influenza virus (10 μM screen), the “first experiment PFU/ml” value is 7000 PFU/ml.
As to `COc1ccc(CNCC2CCCCC2)c(OCC(O)CN2CCN(C)CC2)c1` (centres unmarked) [18-5], in the data set on Influenza virus (10 μM screen), the “first experiment PFU/ml” value is reported as 60000 PFU/ml.
On the same count and under the same terms, with `COc1ccc(CNCCc2ccccc2)c(OCC(O)CN2CCN(C)CC2)c1` (centres unmarked) [18-6] the figure was 10000 PFU/ml; with `COc1ccc(CNCCCn2ccnc2C)c(OCC(O)CN2CCN(C)CC2)c1` (centres unmarked) [18-7], 240000 PFU/ml.
With `COc1ccc(CNC2CCCCCCC2)c(OCC(O)CN2CCN(C)CC2)c1` (centres unmarked) [18-8], the “first experiment PFU/ml” value in the data set with Influenza virus (10 μM screen) came out at 3000 PFU/ml.
Still for that read-out and setting: with `COc1ccc(CNCCc2cccnc2)c(OCC(O)CN2CCCCCCC2)c1` (centres unmarked) [18-9] the figure was 200000 PFU/ml; with `COc1ccc(CNC2CCCCC2)c(OCC(O)CN2CCN(C)CC2)c1` (centres unmarked) [18-10], 40000 PFU/ml.
Still for that read-out and setting: with `COCCCNCc1ccc(OC)cc1OCC(O)CN1CCN(C)CC1` (centres unmarked) [18-11] the figure was 100000 PFU/ml; with `COc1ccc(CNCC(F)(F)F)c(OCC(O)CN2CCN(C)CC2)c1` (centres unmarked) [18-12], 30000 PFU/ml; with `COc1ccc(CNCCCn2cccn2)c(OCC(O)CN2CCN(C)CC2)c1` (centres unmarked) [18-13], 40000 PFU/ml.
On the same count and under the same terms, with `COc1ccc(CNCCCSC)c(OCC(O)CN2CCCCCCC2)c1` (centres unmarked) [18-14] the figure was 44000 PFU/ml.
In the case of `COc1ccc(CNCCCn2ccnc2)c(OCC(O)CN2CCN(C)CC2)c1` (centres unmarked) [18-15], the “Influenza virus plaque assay titer, 10 μM” value with Influenza virus (compound at 10 μM, DMSO control 100000) turned out to be 36000 PFU/virus/ml.
For `COc1ccc(CNCCCSC)c(OCC(O)CN2CCN(C)CC2)c1` (centres unmarked) [18-16], the “first experiment PFU/ml” value in the data set with Influenza virus (10 μM screen) is reported as 210000 PFU/ml.
With `COc1ccc(CNCCc2ccccc2F)c(OCC(O)CN2CCN(C)CC2)c1` (centres unmarked) [18-lead, 1-[2-({[2-(2-fluorophenyl)ethyl]amino}methyl)-5-methoxyphenoxy]-3-(4-methyl-1-piperazinyl)-2-propanol], in the data set on Influenza virus (10 μM screen), the “first experiment PFU/ml” value came to 2000 PFU/ml. In addition, the “1-24-20 (triplicate wells) PFU/ml” value in the data set on Influenza virus (10 μM screen, well 1, 0.1% DMSO control 23000) was 1300 PFU/ml; with Influenza virus (10 μM screen, well 2, 0.1% DMSO control 19000), 1000 PFU/ml; in the data set with Influenza virus (10 μM screen, well 3, 0.1% DMSO control 29000) it was 4000 PFU/ml; in the data set on Influenza virus (50 μM screen, well 1, 0.5% DMSO control 21000) it was 600 PFU/ml; in the data set with Influenza virus (50 μM screen, well 2, 0.5% DMSO control 5300), 200 PFU/ml; with Influenza virus (50 μM screen, well 3, 0.5% DMSO control 15000), 300 PFU/ml.
Broadly, the IC50 is the point on the concentration scale where inhibition reaches its midpoint. Take `COc1ccc(CNCCc2ccccc2C)c(OCC(O)CN2CCN(C)CC2)c1` (centres unmarked) [UMB18-2]: the “Inhibition of SARS-CoV-2 virus production (TCID50)” value in the data set with SARS-CoV-2 is given as “capable of inhibiting virus production; also recorded: less so”. The “IAV RNA amplified by M-RTPCR” value with IAV RNA is “total loss of IAV RNA”. Also, the IC50 with Influenza virus and in the data set with MERS-CoV was ~5 µM throughout. For the same compound, the NS1 protein result in the data set with IAV NS1 is recorded as “lack of NS1 protein”. Further, in the data set on IAV, the “Inhibition of IAV, drug added 2 h after infection (+2 h)” value is given as “marked reduction in the level of inhibition”. In the data set on SARS-CoV (10 μM), the “Inhibition of SARS-CoV virus production” value was “inhibition, but to a lesser extent”. Besides, the “Reduction in SARS-CoV virus production” value in the data set with SARS-CoV (50 μM) was determined as 1 log. The “NS1 mRNA” value with IAV NS1 mRNA is “marked reduction in mRNA”. For the same compound, the “SARS-CoV-2 mRNA production” value in the data set on SARS-CoV-2 mRNA is listed as “capable of inhibiting SARS-CoV-2 mRNA production”.
`COc1ccc(CNCCc2ccccc2F)c(OCC(O)CN2CCN(C)CC2)c1` (centres unmarked) [UMB18]: the “Antiviral activity against Influenza virus” value with Influenza virus is “antiviral activity against influenza”. Besides, the IC50 in the data set on Influenza virus was ~5 µM; in [1], ~5 µM; in the data set with MERS-CoV it was ~5 µM; in data set [2] it was ~16 µM. The “Cell cytotoxicity at antiviral concentrations” value with A549 cells and in the data set with Huh7 cells was “minimal toxicity” throughout. Further, the NS1 protein result in the data set with IAV NS1 is recorded as “lack of NS1 protein”. Moreover, the “Inhibition of IAV, drug added 2 h after infection (+2 h)” value in the data set with IAV is “marked reduction in the level of inhibition”. Also, the “NS1 mRNA” value with IAV NS1 mRNA is “marked reduction in mRNA”.
In the case of `COc1ccc(OC)c(Cc2nnc(CCC(=O)NC3CC(C)(C)CC(C)(C)C3)o2)c1` [compound 35434810, 3-4[5-(2,5-dimethoxybenzyl)-1,3,4-oxadiazol-2-yl]-N-(3,3,5,5-tetramethylcyclohexyl)propanamide], the “Flu titer (pfu/ml)” value was 80000 pfu/ml with Influenza virus (setting [3]), 130000 pfu/ml with Influenza virus (setting [4]) and 80000 pfu/ml in the data set with Influenza virus (setting [5]).
For `OCCN(Cc1nc(Cc2cccc(C(F)(F)F)c2)no1)CC12CC3CC(CC(C3)C1)C2` [compound 61121342], the “Flu titer (pfu/ml)” value in the data set with Influenza virus (setting [3]) came out at 130000 pfu/ml; in the data set on Influenza virus (setting [4]), 50000 pfu/ml; in the data set on Influenza virus (setting [5]) it was 9000 pfu/ml.

These data come from patent US20220259180A1, “BROAD SPECTRUM ANTIVIRAL COMPOUNDS TARGETING THE SKI COMPLEX” (priority 2019, published 2022).
